From ChEMBL document CHEMBL1153774, “Chemical constituents from the aerial parts of Artemisia minor” (J Nat Prod, 2009)

Legend:
[1] = target: Xanthine dehydrogenase/oxidase (Homo sapiens, UniProt P47989); test: Inhibition of XOD
HepG2 = test: Cytotoxicity against human HepG2 cells by SRB assay; assay type: functional
[2] = target: T1, Tyrosine-protein phosphatase non-receptor type 1 (Homo sapiens, UniProt P18031); test: Inhibition of human recombinant PTP1B after 10 mins
T1 sequence (P18031 whole entry): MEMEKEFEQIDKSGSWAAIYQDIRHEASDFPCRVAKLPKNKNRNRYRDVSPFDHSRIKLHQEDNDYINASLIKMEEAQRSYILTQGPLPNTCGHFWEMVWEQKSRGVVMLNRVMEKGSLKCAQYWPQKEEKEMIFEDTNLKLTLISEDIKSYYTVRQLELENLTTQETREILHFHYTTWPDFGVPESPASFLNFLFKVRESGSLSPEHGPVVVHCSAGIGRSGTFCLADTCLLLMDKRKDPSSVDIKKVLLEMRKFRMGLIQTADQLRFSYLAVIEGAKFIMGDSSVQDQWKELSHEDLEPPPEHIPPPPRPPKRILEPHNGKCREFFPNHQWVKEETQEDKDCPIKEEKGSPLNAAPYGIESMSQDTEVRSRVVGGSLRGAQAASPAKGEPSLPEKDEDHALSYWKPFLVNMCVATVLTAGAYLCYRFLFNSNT

Xanthine dehydrogenase/oxidase, sequence (P47989 whole entry): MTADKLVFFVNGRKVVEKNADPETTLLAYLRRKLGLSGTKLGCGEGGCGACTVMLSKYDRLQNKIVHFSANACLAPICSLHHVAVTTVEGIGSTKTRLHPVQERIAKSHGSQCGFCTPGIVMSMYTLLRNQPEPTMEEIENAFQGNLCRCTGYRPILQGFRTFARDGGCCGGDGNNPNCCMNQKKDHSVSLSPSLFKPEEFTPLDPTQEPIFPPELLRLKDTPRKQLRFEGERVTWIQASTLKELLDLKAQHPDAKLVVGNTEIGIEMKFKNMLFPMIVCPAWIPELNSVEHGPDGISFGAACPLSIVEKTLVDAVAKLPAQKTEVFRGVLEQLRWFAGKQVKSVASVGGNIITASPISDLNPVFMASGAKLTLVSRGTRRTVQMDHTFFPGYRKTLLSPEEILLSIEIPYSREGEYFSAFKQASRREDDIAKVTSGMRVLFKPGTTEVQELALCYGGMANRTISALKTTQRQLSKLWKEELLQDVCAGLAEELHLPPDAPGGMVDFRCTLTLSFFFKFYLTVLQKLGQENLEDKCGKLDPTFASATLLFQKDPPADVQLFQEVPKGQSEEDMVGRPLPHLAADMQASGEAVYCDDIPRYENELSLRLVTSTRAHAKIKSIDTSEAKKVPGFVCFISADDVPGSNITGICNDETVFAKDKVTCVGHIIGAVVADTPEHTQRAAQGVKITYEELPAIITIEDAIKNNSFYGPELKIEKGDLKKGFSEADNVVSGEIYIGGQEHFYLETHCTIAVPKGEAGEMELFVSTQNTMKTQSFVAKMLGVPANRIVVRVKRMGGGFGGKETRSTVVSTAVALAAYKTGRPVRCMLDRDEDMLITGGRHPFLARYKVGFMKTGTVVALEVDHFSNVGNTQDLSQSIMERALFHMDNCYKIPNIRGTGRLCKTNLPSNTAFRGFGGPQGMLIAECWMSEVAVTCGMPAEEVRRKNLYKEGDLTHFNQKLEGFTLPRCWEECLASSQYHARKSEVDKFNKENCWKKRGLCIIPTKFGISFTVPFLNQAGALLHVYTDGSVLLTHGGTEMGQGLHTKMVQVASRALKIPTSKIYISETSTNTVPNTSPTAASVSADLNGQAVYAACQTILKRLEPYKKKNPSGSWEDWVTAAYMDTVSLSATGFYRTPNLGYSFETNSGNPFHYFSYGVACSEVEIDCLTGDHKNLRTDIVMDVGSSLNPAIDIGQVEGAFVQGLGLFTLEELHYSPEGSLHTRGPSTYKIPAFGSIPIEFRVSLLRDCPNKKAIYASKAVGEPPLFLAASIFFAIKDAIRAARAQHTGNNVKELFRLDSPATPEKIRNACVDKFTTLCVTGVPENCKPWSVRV

| SMILES | IC50 [1] | GI50 (HepG2) | other results |
| --- | --- | --- | --- |
| COc1cc2cc(-c3cc4cc(O)c(O)cc4oc3=O)c(=O)oc2c(OC)c1O [ARTEMINORIN C] | 7.71 µM | – | – |
| CC(=O)O[C@H]1C(=O)[C@@]2(C)[C@H]([C@H](OC(=O)c3ccccc3)[C@]3(O)C[C@H](OC(=O)[C@H](O)[C@@H](NC(=O)c4ccccc4)c4ccccc4)C(C)=C1C3(C)C)[C@]1(OC(C)=O)CO[C@@H]1C[C@@H]2O [PACLITAXEL] | – | 0.059 µM | – |
| CCOC(=O)/C=C/c1ccc(O)c(O)c1 [ETHYL CAFFEATE] | – | 17.2 µM | – |
| O=c1cc(-c2ccc(O)c(O)c2)oc2cc(O)cc(O)c12 [LUTEOLIN] | 11.5 µM | – | – |
| O=C(O)/C=C/c1ccc(O)c(O)c1 [CAFFEIC ACID] | – | – | IC50 [2]: 3.06 µM |
